US20090238881A1, “IONOPHORE ANTIBIOTIC FORMULATIONS” (priority 2000, published 2009)

Experiments:
[1] = cited from earlier work
[2] = Solubility of monensin in propylene glycol; assay type: physicochemical
Description: There is an indication that 50% of the monensin was found in solution in the propylene glycol.
We have found monopropylene glycol to be a poor solvent of monensin. While we have in NZ 272574/272940 referred to monopropylene glycol as being an antifreeze agent in which the ionophore antibiotic is sparingly soluble, we do appreciate that solubility to the extent referred to in Example 1 of EP 0,139,595 may be achieved when induced with ultrasound or heating.

[3] = EP 0,139,595 Example 1: 250 g mycelium (10% monensin), 1250 cc propylene glycol, room temperature, 2 hours ultrasound; cited from earlier work

## monensin
[1]
  solubility in water: only slightly soluble in water
[2]
  solubility in monopropylene glycol: poor solvent
[3]
  monensin found in solution in the propylene glycol: 50%
